The results in this text go back to US12213860B2, “Method for separating mammalian sperm, artificial insemination method, and in vitro fertilization method” (Hiroshima University, priority 2017, dated 2025).

Holding throughout (format): cell-based
The subject of data set [1] is bovine sperm. The experiment in a line: Percentages of X-sperm and Y-sperm in floating bovine sperm by real-time PCR. As to the method: A frozen bovine semen provided by the Oita Prefectural Agriculture, Forestry and Fisheries Research Center was used. The frozen sperm were melted, and washed with an albumin-free HTF medium. The bovine sperm were incubated in a medium prepared by adding albumin and a TLR7 ligand to HTF at 37° C., 5% CO2 for 1 hour. The TLR7 ligand used was R-848 or imiquimod R-837 (hereinafter referred to as R-837). The content of R-848 was 0 μM, 0.003 μM, 0.03 μM, 0.3 μM, or 3 μM. The content of R-837 was 0.003 μM, 0.03 μM, 0.3 μM, 3 μM, 30 μM, or 300 μM. Then, after collecting the floating sperm in the upper layer and extracting DNA, the percentages of X-sperm and Y-sperm were determined by real-time PCR.

For data set [2], the system named is bovine sperm. The experiment in a line: Bovine in vitro fertilization with upper layer sperm; fertilization, blastocyst rate and sexing by real-time PCR. As to conditions: bovine IVF, upper layer sperm from 0.03 μM R-848 treatment group. As to the method:
Bovine in vitro fertilization was performed using the sperm in the upper layer rich in Y-sperm from the 0.03 μM R-848 treatment group. […] Next, sexing of the blastocyst embryos was performed by real-time PCR.
(In general: Real-time PCR tracks product formation cycle by cycle.)

The subject of data set [3] is mouse sperm. The experiment in a line: Mouse in vitro fertilization with washed floating sperm; XX/XY chromosomes of embryos. As to conditions: floating sperm from 0.3 μM treatment group. As to the method: The floating sperm in the non-treatment group and 0.3 μM treatment group were washed, and then subjected to in vitro fertilization. The percentage of in vitro fertilization embryo bearing XX chromosomes or XY chromosomes was determined.

Data set [4] has as its system mouse sperm. The experiment in a line: Mouse in vitro fertilization with upper and lower layer sperm separated at 50×g; 2-cell, blastocyst embryo, XX/XY chromosomes. As to conditions: for 2-cell (%), (number of 2-cell/number of eggs)×100 / Blastocyst embryo (%), (number of blastocyst embryos/number of 2-cell)×100 / Blastocyst embryo (number) / XX chromosomes (%) of blastocyst embryos / XX chromosomes (number) of blastocyst embryos / XY chromosomes (%) of blastocyst embryos / XY chromosomes (number) of blastocyst embryos / 2-cell (number), observed cleavages in 24 hours: R-848 0.3 μM, 50×g. As to the method: Then, the percentages of blastocyst embryos bearing XX chromosomes or XY chromosomes were determined. In addition, a sperm population obtained by incubating in the same medium as described above at 37° C. for 60 minutes without addition of the TLR7 ligand and without centrifugation (non-treatment group) was subjected to in vitro fertilization in the same manner as described above to form a blastocyst embryo. Then, the percentages of blastocyst embryos bearing XX chromosomes or XY chromosomes were determined. In the column “2-cell” in Table 3, “number” represents number of observed cleavages in 24 hours, while “%” represents “(number of 2-cell/number of eggs)×100.” In the column “blastocyst embryo,” “number” represents number of formed blastocyst embryos, while “%” represents “(number of blastocyst embryos/number of 2-cell)×100.”

Data set [5] relates to mouse sperm. Nature of the data set: Percentages of X-sperm and Y-sperm in floating mouse sperm by real-time PCR. As to conditions: 0.3 μM treatment group. As to the method:
Mouse sperm were incubated in a medium prepared by adding albumin and a TLR7 ligand to an embryo culture medium (HTF) at 37° C., 5% CO2 for 1 hour. The TLR7 ligand used was Resiquimod R-848 (hereinafter referred to as R-848). The content of R-848 was 0 μM, 0.003 μM, 0.03 μM, 0.3 μM, 1.5 μM, or 3 μM. The sperm floating in the upper layer were collected, and DNA was extracted. Then, the percentages of X chromosome-bearing sperm (hereinafter referred to as X-sperm) and Y chromosome-bearing sperm (hereinafter referred to as Y-sperm) were determined by real-time PCR (polymerase chain reaction).

In data set [6] the test system is mouse sperm. The experiment in a line: Separation of mouse sperm by hypergravity load (centrifugation) after TLR7 ligand incubation; X-/Y-sperm percentages in upper and lower layer. As to conditions: R-848 0.3 μM; for percentage of X-sperm in the lower layer of the medium: 30% of the lower layer; for percentage of Y-sperm in the upper layer of the medium: 30% of the upper layer. The method, then:
Mouse sperm were incubated in a medium (500 μL) prepared by adding albumin and a TLR7 ligand to an embryo culture medium (HTF) at 37° C., 5% CO2 for 1 hour. The TLR7 ligand used was Resiquimod R-848 (hereinafter referred to as R-848). The content of R-848 was 0.3 μM. After 30 minutes, the media were centrifuged using a centrifuge (product name: Tabletop Micro Refrigerated Centrifuge Model 3520, produced by KUBOTA Corporation Co., Ltd.) at 37° C. for 30 minutes. The centrifugation was at a centrifugal force of 50×g, 100×g, or 500×g. For comparison, a system without centrifugation (0×g) was also prepared. After centrifugation, 150 μL of the upper layer (30% of the upper layer) of each of the media was collected, and the percentages of X-sperm and Y-sperm in each of the media were determined in the same manner as described above. In addition, 150 μL of the lower layer (30% of the lower layer) of each of the media was collected, and the percentages of X-sperm and Y-sperm in each of the media were determined in the same manner as described above.

A further data set relates to pig sperm. Nature of the data set: Percentages of X-sperm and Y-sperm in floating pig sperm by real-time PCR. As to conditions: R-848 0.3 μM, 2 hours. As to the method:
Pig sperm were incubated in a medium prepared by adding cysteine, glycine, and a TLR7 ligand to the Modena solution at 37° C., 5% CO2, 5% O2 for 2 hours. The TLR7 ligand used was R-848. The content of R-848 was 0 μM or 0.3 μM. After collecting the floating sperm in the upper layer and extracting DNA, the percentages of X-sperm and Y-sperm were determined by real-time PCR.

[7] abbreviates: centrifugation at 100×g or more.

As to `CCOCc1nc2c(N)nc3ccccc3c2n1CC(C)(C)O` [R-848, resiquimod], in the data set on bovine sperm [1] (R-848 0.03 to 0.3 μM treatment groups), the “percentage of Y-sperm in floating sperm” value is given as at least 90%. In the data set with bovine sperm [2], the “blastocyst embryo transfer rate” value worked out at 64.3%, the fertilization rate stood at 71.7% and the “male embryos (sexing of blastocyst embryos by real-time PCR)” value was 87.8%. Besides, the “XX chromosomes (%) of in vitro fertilization embryos” value in the data set on mouse sperm [3] is recorded as 13%. Further, in the data set on mouse sperm [3] (98 embryos tested), the “XX chromosomes (Number) of in vitro fertilization embryos” value stood at 13 and the “XY chromosomes (Number) of in vitro fertilization embryos” value stood at 85. Besides, the “effect on the fertilization function of the sperm” value with mouse sperm [4] (centrifugation on sperm incubated in medium supplemented with TLR7 ligand (R-848 0.3 μM, 50×g) vs non-treatment group) was “no effect”. Further, in the data set on mouse sperm [4] (lower layer group), the “2-cell (%), (number of 2-cell/number of eggs)×100” value turned out to be 70%; the “Blastocyst embryo (%), (number of blastocyst embryos/number of 2-cell)×100” value was determined as 70%; the “Blastocyst embryo (number)” value was 48; the “XX chromosomes (%) of blastocyst embryos” value is given as 81%. In the data set on mouse sperm [4] (lower layer group), the “XX chromosomes (number) of blastocyst embryos” value worked out at 39, the “XY chromosomes (%) of blastocyst embryos” value is on record as 19% and the “XY chromosomes (number) of blastocyst embryos” value amounted to 9. Besides, the “2-cell (number), observed cleavages in 24 hours” value in the data set with mouse sperm [4] (lower layer group, 99 eggs) came out at 69. Besides, in the data set on mouse sperm [4] (upper layer group), the “2-cell (%), (number of 2-cell/number of eggs)×100” value stood at 79%; the “Blastocyst embryo (%), (number of blastocyst embryos/number of 2-cell)×100” value was 73%; the “Blastocyst embryo (number)” value is listed as 59; the “XX chromosomes (%) of blastocyst embryos” value is recorded as 10%. In the data set on mouse sperm [4] (upper layer group), the “XX chromosomes (number) of blastocyst embryos” value is 6, the “XY chromosomes (%) of blastocyst embryos” value is given as 90% and the “XY chromosomes (number) of blastocyst embryos” value is recorded as 53. Also, in the data set on mouse sperm [4] (upper layer group, 103 eggs), the “2-cell (number), observed cleavages in 24 hours” value worked out at 81. Further, in the data set with mouse sperm [5], the “percentage of Y-sperm in floating sperm” value is at least 80%. In the data set with mouse sperm [6] (0×g (without centrifugation)), the “percentage of X-sperm in the lower layer of the medium” value was “exceeding 60%” and the “percentage of Y-sperm in the upper layer of the medium” value is recorded as “exceeding 80%”. Also, in the data set with mouse sperm [6] (setting [7]), the “percentage of X-sperm in the lower layer of the medium” value is given as “below 50%” and the “percentage of Y-sperm in the upper layer of the medium” value is on record as “about 60%”. For the same molecule, in the data set on pig sperm, the “percentage of Y-sperm in floating sperm” value is given as at least 90%.
In the case of `CC(C)Cn1cnc2c(N)nc3ccccc3c21` [R-837, imiquimod], in the data set on bovine sperm [1] (R-837 0.03 to 30 μM treatment groups), the “percentage of Y-sperm in floating sperm” value was at least 70%.
